Results: US20160213680A1, “COMPOSITIONS AND METHODS USING FLUMAZENIL WITH OPIOID ANALGESICS FOR TREATING PAIN AND/OR ADDICTION, AND WITH DIVERSION AND/OR OVERDOSE MITIGATION” (SOTERIAN PHARMACEUTICALS, LLC, priority 2015, published 2016)
“And” between values parts separate entries of the source, which are not always exact repeats. Equal entries are not always repeated. “Also recorded” adds a separate entry of the source.

Key:
[1] = test system: sedation associated with benzodiazepines (midazolam); assay type: in vivo, human
Description: Subjects were pretreated with about 10 mg flumazenil orally. After 30 minutes midazolam (a benzodiazepine) 0.3 mg was administered and repeated every 30 minutes until sedative effects were noticed by the subject or reported by the investigator. Oral flumazenil of about 10 mg was able to block midazolam for an average of 150 minutes.
This example study was repeated with about 30 mg flumazenil orally (2 subjects) and sublingually (3 subjects). Allowing the sublingual flumazenil treatment option was thought to avoid first pass hepatic metabolism and potentially increase Cmax (maximum [or peak] serum concentration), shorten Tmax (time at which the Cmax is observed) and is expected to increase the area under the curve for flumazenil in the serum. In this dose range study subjects were again pretreated with about 30 mg flumazenil orally or sublingually. After 30 minutes midazolam (Versed) 0.3 mg was administered and repeated every 30 minutes until sedative effects were noticed by the subject or reported by the investigator.

[2] = Tablet pilot studies of flumazenil tolerability; assay type: in vivo, human; settings: tablet formulations, compared with IV flumazenil history
Source text: Note, several historical physiological ideas about IV flumazenil may be much different compared to the formulations of flumazenil used in the various pharmaceutical dosage units. […] When patients are currently prescribed opiates, such patients are instructed to avoid benzodiazepines and the pharmaceutical dosage units disclosed herein may make physicians more confident that such patients will remain compliant with that instruction.

[3] = test system: patients who had been taking methadone; test: Example 2: conversion of methadone patients to the sublingual tablet (withdrawal, VAS pain); assay type: in vivo, human; settings: patients withdrawing from methadone
Description: […]. These patients took an average of 9 days to convert before methadone withdrawal was completely eliminated.
Patients who had been taking 50 mg to 140 mg per day of methadone were first titrated down with Ultram (e.g., via 2 to 3 tablets of Ultram 50 mg administered every 6 hours) for four days. Following this titration period, the patients were given injections containing 0.3 mg buprenorphine and 60 mg torodol to see if further time was needed before the sublingual tablets comprising buprenorphine and flumazenil could be started without risk of precipitating withdrawal. […]. Stomach tightness, nausea, and restless legs were the most common complaints from these patients.

[4] = in vivo, cited from earlier work

SMILES: Cc1ncc2n1-c1ccc(Cl)cc1C(c1ccccc1F)=NC2 [midazolam]
- time to maximum sedation after IV midazolam dosing ([1]; midazolam 0.3 mg IV): 5 min

SMILES: CCOC(=O)c1ncn2c1CN(C)C(=O)c1cc(F)ccc1-2 [flumazenil, ethyl 8-fluoro-5-methyl-6-oxo-5,6-dihydro-4H-benzo[f]imidazo[1,5-a][1,4]diazepine-3-carboxylate]
- anxiety, panic attacks, dysphoria, disorientation [2]: does not cause anxiety nor panic attacks; also recorded: no dysphoria nor disorientation
- effect of flumazenil on the pain and withdrawal relieving effect of buprenorphine [3]: noticeably enhanced
- duration of blockade from Versed ([1]; about 3 mg IV flumazenil): 60 min
- duration of midazolam blockade / protection from sedation (average) ([1]; about 10 mg flumazenil orally, midazolam 0.3 mg every 30 minutes): 150 min
- sedation at the 330 minute interval ([1]; about 30 mg flumazenil orally or sublingually, all subjects): measurable (but reduced) sedation
- duration of midazolam blockade, individual subjects ([1]; about 30 mg flumazenil orally, the 2 subjects): 240 min and 270 min
- time for flumazenil to clear the serum (average) ([1]; human, in vivo, po): about 3 hours
- oral and/or gastrointestinal bioavailability ([4]; po): very low
- elimination half-life [4]: 1.4 h
